{
  "source": "paper PMC6066186",
  "about": "(Angewandte Chemie (International ed. in English), 2018)",
  "key": {"Mtb [1]": {"test_system": "Mtb", "conditions": "cited from earlier work"}, "[2]": {"test_system": "NADH oxidation in purified membranes", "conditions": "cited from earlier work"}, "[3]": {"test_system": "ATP production through oxidative phosphorylation in membrane vesicles derived from mycobacteria", "assay": "NADH-initiated ATP synthesis in mycobacterial membrane vesicles", "type": "biochemical", "conditions": "read-out: IC50, inhibition of ATP synthesis, NADH added"}, "Mtb [4]": {"test_system": "Mtb", "assay": "Growth inhibition", "type": "cell-based, Mycobacterium tuberculosis"}, "Mtb [5]": {"test_system": "Mtb", "assay": "Combination with isoniazid, Mtb growth", "type": "cell-based, Mycobacterium tuberculosis", "conditions": "250 nm, in the absence of TQZ"}},
  "data": [
    {"smiles": "C=C(C)[C@H]1Cc2c(ccc3c2O[C@@H]2COc4cc(OC)c(OC)cc4[C@@H]2C3=O)O1", "note": "[rotenone]", "values": [
      {"measurement": "effect on mycobacterial growth", "setting": "Mtb [1]", "result": "little effect"},
      {"measurement": "effect on NADH oxidation", "setting": "[2]", "result": "little effect"}
    ]},
    {"smiles": "COc1nc2ccc(Br)cc2cc1[C@@H](c1ccccc1)[C@@](O)(CCN(C)C)c1cccc2ccccc12", "note": "[bedaquiline]", "values": [
      {"measurement": "IC50", "setting": "[3]", "result": 6.9, "unit": "nM"}
    ]},
    {"smiles": "O=C(CSc1nc2cccc(F)c2c(=O)[nH]1)NC1CCCCC1", "note": "[CBR-3465]", "values": [
      {"measurement": "MIC", "setting": "Mtb [4]", "result": 0.16, "unit": "µM"}
    ]},
    {"smiles": "NNC(=O)c1ccncc1", "note": "[INH, isoniazid]", "values": [
      {"measurement": "effect on Mtb replication", "setting": "Mtb [5]", "result": "completely prevents replication"}
    ]}
  ]
}
